Results published in US9624544B2, “Allelic disorders caused by mutations in TRPV4” (Northwestern University, priority 2009, dated 2017).

Key:
[1] = system: TRPV4 (wtTRPV4, TRPV4R269H, TRPV4R316C); assay: Calcium imaging, internal Fura-2 fluorescence ratio (340/380), in transiently transfected HEK293 cells; format: cell-based, human; conditions: for effect on [Ca2+]i (internal fluorescence ratio): WT-TRPV4, R269H and R316C transfected HEK293 cells
Experimental: The TRPV4 channel responds to a variety of stimuli (Nilius et al. Physiol Rev 87, 165-217 (2007); herein incorporated by reference in its entirety). To test the potential effects of the mutations on calcium channel activity, the calcium channel activity of transiently transfected HEK293 cells was analyzed using internal Fura-2 fluorescence ratio (340/380) as an indicator of the intracellular Ca2+ levels, which depend on Ca2+ influx. Calcium levels of the transfected cells were examined in response to various stimuli, including TRPV4-specific agonist 4α-phorbol 12, 13-didecanoate (4αPDD) (SEE FIG. 4), osmotic cell swelling (SEE FIG. 5), moderate heat (37° C.) (SEE FIG. 9) and endogenous agonist arachidonic acid (SEE FIG. 10). A consistent pattern of channel response to different stimuli was observed. […] The increased calcium channel activity was inhibited by TRPV antagonist ruthenium red.
Human embryonic kidney cells (HEK293) were grown on collagen-coated glass coverslips in Dulbecco's modified Eagle's medium containing 10% (v/v) human serum, 2 mM L-glutamine, 2 U/ml penicillin, and 2 […] at 37° C. in a humidity-controlled incubator with 5% CO2. The cells were transiently transfected with expression vectors, wild-type TRPV4, TRPV4^R316C or TRPV4^R269H using Lipofectamine 2000 (Invitrogen).
Intracellular free calcium concentration was measured using digital video microfluorimetry. Twenty-four hours after transfection, cells were rinsed briefly with HEPES buffer (120 mM NaCl, 5.4 mM KCl, 1.6 mM MgCl2, 1.8 mM CaCl2, 11 mM glucose, and 25 mM HEPES, pH 7.2), and loaded with 4 μM fura-2 AM (Molecular Probes) in HEPES buffer for 30 min at room temperature. […] The coverslips were then mounted on the stage of a Nikon Diaphot inverted epifluorescence microscope equipped for digital fluorescence microscopy. After excitation at 340 nm (Ca^2+-bound) and 380 nm (Ca^2+-free) fluorescence was digitally monitored at 520 nm. […] Values for Rmin and Rmax were determined by applying Ca^2+-free solution and high Ca^2+ containing solution in the presence of 5 μM ionomycin, respectively. […]

[2] = system: TRPV4 (wtTRPV4, TRPV4-R269H); assay: Whole cell voltage clamp recordings of TRPV4 currents from transfected HEK293 cells; format: cell-based, human; conditions: 20 μM ruthenium red in the bath; voltage ramp -100 to 100 mV; cells expressing wtTRPV4 or TRPV4-R269H
Experimental: The effect of the CMT2C-linked mutation (TRPV4R269H) on the electrophysiological properties of TRPV4 was examined. Whole-cell patch-clamp recordings were obtained from transiently transfected HEK293 cells.
Whole cell voltage clamp recordings were performed to HEK293 cells transiently transfected with wild-type or R269H TRPV4 cDNA. […] Similar GFP-fluorescent cells were selected for experiments. […] The series resistance was 4 to 14 MSΩ and was compensated between 65 and 75%. The extracellular solution consisted of (in mM): NaCl 100, KCl 6, MgCl2 2, CaCl2 1.5, Glucose 10, HEPES 10, pH 7.38 adjusted with NaOH, ˜315 mOsm adjusted with sucrose. Whole cell currents were recorded using an Axopatch 200B amplifier (Molecular Devices). Cells were held at −30 mV and currents were elicited by slow voltage ramps (from −100 mV to +100 mV, 0.6 sec duration), filtered at 5 KHz and sampled at 10 KHz. Drugs were bath-applied at a rate of ˜4 ml/min. The current density was determined by normalizing the current to the cell capacitance measured in voltage clamp using a −5 mV square pulse from a holding potential of −30 mV. Ruthenium red was prepared in a 20 mM stock solution (in water) and stored at 2-4° C. Working solutions were prepared freshly daily and were bath applied. After drug application the dish was discarded even if complete wash-out of the drug was obtained.

SMILES: N.N.N.N.N.N.N.N.N.N.N.N.N.N.[Cl-].[Cl-].[Cl-].[Cl-].[Cl-].[Cl-].[O-2].[O-2].[Ru+3].[Ru+3].[Ru+4] [ruthenium red]
- effect on the increased calcium channel activity ([1]; ruthenium red 20 μM used to block the stimuli, transfected HEK293 cells): inhibited
- effect on basal whole-cell currents [2]: dramatically reduced the currents

SMILES: CCCCC/C=C\C/C=C\C/C=C\C/C=C\CCCC(=O)O [AA, arachidonic acid]
- effect on [Ca2+]i (internal fluorescence ratio) ([1]; arachidonic acid 10 μM): induced an increase in [Ca^2+]i

SMILES: CCCCCCCCCC(=O)O[C@@H]1[C@@H](C)[C@@]2(O)[C@@H](C=C(CO)C[C@@]3(O)C(=O)C(C)=C[C@@H]23)[C@@H]2C(C)(C)[C@]12OC(=O)CCCCCCCCC [4αPDD, 4α-phorbol 12, 13-didecanoate]
- effect on [Ca2+]i (internal fluorescence ratio) ([1]; 4αPDD 2 μM): induced an increase in [Ca2+]i
